Reference: US6737383B1, “Herbicidal oxadiazolidines” (priority 1999, dated 2004)

Key:
[1] = tested on: sugar beet; assay: Test B pre/postemergence sugar beet; format: in vivo, Beta vulgaris
Method in brief: (§1)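 Response is a visual 0-to-10 score relative to untreated plants, where 0 means no effect and 10 means complete control, taken twelve to sixteen days after application. Treatments went onto soil at planting and onto foliage of 1- to 4-leaf plants, using a surfactant-containing non-phytotoxic solvent.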

[2] = tested on: bedstraw; assay: Test B pre/postemergence bedstraw; format: in vivo, Galium aparine
Method in brief: as §1

[3] = tested on: pigweed; assay: Test B pre/postemergence pigweed; format: in vivo, Amaranthus retroflexus
Method in brief: as §1

[4] = tested on: rice; assay: Test B flood test rice; format: in vivo, Oryza sativa
Method in brief: (§2)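 Plants were grown to the 2-leaf stage before treatment with test chemical, then held in a greenhouse for twelve to sixteen days. Injury was visually rated against untreated controls on a 0–10 scale, where 0 is no effect and 10 is complete control.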

[5] = tested on: velvetleaf; assay: Test B pre/postemergence velvetleaf; format: in vivo, Abutilon theophrasti
Method in brief: as §1

[6] = tested on: soybean; assay: Test B pre/postemergence soybean; format: in vivo, Glycine max
Method in brief: as §1

[7] = tested on: corn; assay: Test B pre/postemergence corn; format: in vivo, Zea mays
Method in brief: as §1

[8] = tested on: giant foxtail; assay: Test B pre/postemergence giant foxtail; format: in vivo, Setaria faberii
Method in brief: as §1

[9] = tested on: crabgrass; assay: Test B pre/postemergence crabgrass; format: in vivo, Digitaria sanguinalis
Method in brief: as §1

[10] = tested on: surinam grass; assay: Test B pre/postemergence surinam grass; format: in vivo, Brachiaria decumbens
Method in brief: as §1

[11] = tested on: blackgrass; assay: Test B pre/postemergence blackgrass; format: in vivo, Alopecurus myosuroides
Method in brief: as §1

[12] = tested on: duck salad; assay: Test B flood test duck salad; format: in vivo, Heteranthera limosa
Method in brief: as §2

[13] = tested on: purple nutsedge; assay: Test B pre/postemergence purple nutsedge; format: in vivo, Cyperus rotundus
Method in brief: as §1

[14] = tested on: wheat; assay: Test B pre/postemergence wheat; format: in vivo, Triticum aestivum
Method in brief: as §1

[15] = tested on: wild oat; assay: Test B pre/postemergence wild oat; format: in vivo, Avena fatua
Method in brief: as §1

[16] = tested on: cocklebur; assay: Test B pre/postemergence cocklebur; format: in vivo, Xanthium strumarium
Method in brief: as §1

[17] = Preemergence, Rate 62 g/ha, scale of 0 to 10 where 0 is no effect and 10 is complete control
[18] = Preemergence, Rate 250 g/ha, scale of 0 to 10 where 0 is no effect and 10 is complete control
[19] = Preemergence, Rate 500 g/ha, scale of 0 to 10 where 0 is no effect and 10 is complete control
[20] = Rate 125 g/ha, Postemergence, scale of 0 to 10 where 0 is no effect and 10 is complete control
[21] = Rate 125 g/ha, Preemergence, scale of 0 to 10 where 0 is no effect and 10 is complete control
[22] = Rate 250 g/ha, Postemergence, scale of 0 to 10 where 0 is no effect and 10 is complete control
[23] = Rate 500 g/ha, Postemergence, scale 0 to 10, 0 no effect, 10 complete control
[24] = Rate 62 g/ha, Postemergence, scale of 0 to 10 where 0 is no effect and 10 is complete control
[25] = Rate 62 g/ha, headed Pre-emergence (flood test species), scale 0 to 10 (0 no effect, 10 complete control)
[26] = Rate 125 g/ha, Pre-emergence, flood test species, scale 0 to 10 where 0 is no effect and 10 is complete control
[27] = Rate 250 g/ha, Pre-emergence, flood-test species, scale 0 to 10, 0 is no effect, 10 is complete control
[28] = Rate 500 g/ha, Pre-emergence, flood test species, scale 0 to 10 (0 no effect, 10 complete control)

CC(C)N(C(=O)n1oc(=O)n(CC(C)(C)C)c1=O)c1ccccc1 [Compound 276]
8: Blackgrass plant response rating [11, 23]
7: Plant response rating, Sugarbeets [1, 19] | Soybean plant response rating [6, 23] | Plant response rating, Crabgrass [9, 19] | Crabgrass plant response rating [9, 23] | B. signalgrass plant response rating [10, 21]
4: Plant response rating, Redroot pigweed [3, 19] | Plant response rating, Giant foxtail [8, 22] | Crabgrass plant response rating [9, 21] | B. signalgrass plant response rating [10, 17] | Plant response rating, Blackgrass [11, 22] | Wild oats plant response rating [15, 18]
0: Sugarbeets plant response rating [1, 17] | Sugarbeets plant response rating [1, 20] | Bedstraw plant response rating [2, 17] | Bedstraw plant response rating [2, 18] | Plant response rating, Bedstraw [2, 19] | Bedstraw plant response rating [2, 24] | Bedstraw plant response rating [2, 20] | Bedstraw plant response rating [2, 21] | Redroot pigweed plant response rating [3, 17] | Redroot pigweed plant response rating [3, 20] | Redroot pigweed plant response rating [3, 21] | Rice plant response rating [4, 25] | Rice plant response rating [4, 26] | Rice plant response rating [4, 27] | Rice plant response rating [4, 28] | Velvetleaf plant response rating [5, 17] | Velvetleaf plant response rating [5, 18] | Velvetleaf plant response rating [5, 20] | Velvetleaf plant response rating [5, 21] | Plant response rating, Velvetleaf [5, 22] | Velvetleaf plant response rating [5, 23] | Soybean plant response rating [6, 17] | Soybean plant response rating [6, 18] | Plant response rating, Soybean [6, 19] | Soybean plant response rating [6, 21] | Corn plant response rating [7, 17] | Corn plant response rating [7, 18] | Plant response rating, Corn [7, 19] | Corn plant response rating [7, 24] | Corn plant response rating [7, 20] | Corn plant response rating [7, 21] | Plant response rating, Corn [7, 22] | Corn plant response rating [7, 23] | Crabgrass plant response rating [9, 20] | B. signalgrass plant response rating [10, 24] | B. signalgrass plant response rating [10, 20] | Plant response rating, B. signalgrass [10, 22] | B. signalgrass plant response rating [10, 23] | Blackgrass plant response rating [11, 24] | Ducksalad plant response rating [12, 25] | Ducksalad plant response rating [12, 26] | Ducksalad plant response rating [12, 27] | Ducksalad plant response rating [12, 28] | Nutsedge plant response rating [13, 17] | Nutsedge plant response rating [13, 20] | Nutsedge plant response rating [13, 21] | Plant response rating, Nutsedge [13, 22] | Nutsedge plant response rating [13, 23] | Wheat plant response rating [14, 17] | Wheat plant response rating [14, 18] | Wheat plant response rating [14, 20] | Wheat plant response rating [14, 21] | Plant response rating, Wheat [14, 22] | Wheat plant response rating [14, 23] | Wild oats plant response rating [15, 17] | Wild oats plant response rating [15, 20] | Plant response rating, Wild oats [15, 22] | Wild oats plant response rating [15, 23] | Cocklebur plant response rating [16, 17] | Cocklebur plant response rating [16, 18] | Plant response rating, Cocklebur [16, 19] | Cocklebur plant response rating [16, 24] | Cocklebur plant response rating [16, 20] | Cocklebur plant response rating [16, 21] | Plant response rating, Cocklebur [16, 22] | Cocklebur plant response rating [16, 23]
2: Plant response rating, Sugarbeets [1, 22] | Sugarbeets plant response rating [1, 23] | Redroot pigweed plant response rating [3, 18] | Redroot pigweed plant response rating [3, 23]
6: Plant response rating, Soybean [6, 22] | Giant foxtail plant response rating [8, 23] | Crabgrass plant response rating [9, 18] | Plant response rating, Crabgrass [9, 22] | Blackgrass plant response rating [11, 21] | Plant response rating, Wild oats [15, 19]
10: Giant foxtail plant response rating [8, 18] | Plant response rating, Giant foxtail [8, 19] | Giant foxtail plant response rating [8, 21] | B. signalgrass plant response rating [10, 18] | Plant response rating, B. signalgrass [10, 19] | Blackgrass plant response rating [11, 18] | Plant response rating, Blackgrass [11, 19]
9: Giant foxtail plant response rating [8, 17]
1: Sugarbeets plant response rating [1, 18] | Sugarbeets plant response rating [1, 21] | Plant response rating, Redroot pigweed [3, 22] | Giant foxtail plant response rating [8, 20] | Blackgrass plant response rating [11, 20]
3: Plant response rating, Bedstraw [2, 22] | Bedstraw plant response rating [2, 23] | Plant response rating, Velvetleaf [5, 19] | Crabgrass plant response rating [9, 17] | Plant response rating, Wheat [14, 19]
5: Soybean plant response rating [6, 20]
